Key:
[1] = tested on: A549 (carcinomic human alveolar basal epithelial) cells; assay: In vitro cytotoxicity (antiproliferative activity), CCK-8 assay, A549; assay type: cell-based; details: for IC50: 48 h exposure, CCK-8
Protocol: (§1) In vitro cytotoxicity of the phosphorated aspartic acid derivatives was evaluated by testing their antiproliferative activities against several human cancer cell lines. Cell counting kit (CCK-8) assay was used for the evaluation of growth inhibition. […] In addition, trisubstituted aminophosphonate 9a (Imine precursor, R^1 = H, R^2 = P(O)(OMe)2) and tetrasubstituted aminophosphonate 18 (R^1 = Me, R^2 = P(O)(OMe)2) are used as templates in order to evaluate the effect of the substituents (Table 1).
(§2) Human epithelial lung carcinoma cells (A549) (ATCC® CCL-185™, ATCC, Manassas, VA, USA) were grown in Kaighn’s Modification of Ham’s F-12 Medium (ATCC® 30-2004™, ATCC, Manassas, VA, USA) and lung fibroblast cells (MRC5) (ATCC® CCL-171™, ATCC, Manassas, VA, USA) were grown in Eagle’s Minimum Essential Medium (EMEM, ATCC® 30-2003™, ATCC, Manassas, VA, USA). Epithelial ovary adenocarcinoma cells (SKOV3) (ATCC® HTB-77™, ATCC, Manassas, VA, USA) were grown in McCoy’s 5A medium (ATCC® 30-2007™, ATCC, Manassas, VA, USA). All of them were supplemented with 10% of fetal bovine serum (FBS) (Sigma-Aldrich, Madrid, Spain) and with 1% of NORMOCIN solution (Thermo Fisher, Waltham, MA, USA). Cells were incubated at 37 °C and 5% CO2 atmosphere, and were split every 3–4 days to maintain monolayer coverage. For the cytotoxicity experiments, the A549 and SKOV3 cells were seeded in 96-well plates at a density of 2.5–3 × 10^3 cells per well and incubated overnight to achieve 70% of confluence at the time of exposition to the cytotoxic compound.
(§3) Cells were exposed to different concentrations of the cytotoxic compounds and were incubated for 48 h. Then, 10 µL of cell counting kit-8 was added into each well for an additional two hours’ incubation at 37 °C. The absorbance of each well was determined by an Automatic Elisa Reader System (Thermo Scientific Multiskan FC Automatic Elisa Reader System, Thermo Scientific, Shanghai, China) at 450 nm wavelength.

[2] = tested on: SKOV3 (human ovarian carcinoma) cells; assay: In vitro cytotoxicity (antiproliferative activity), CCK-8 assay, SKOV3; assay type: cell-based; details: for IC50: Homo sapiens, SK-OV-3, 48 h exposure, CCK-8
Protocol: as §1, §2, §3

[3] = tested on: MRC5 lung fibroblast cells; assay: Selective toxicity, CCK-8 assay, non-malignant MRC5 lung fibroblasts; assay type: cell-based; details: for IC50: Homo sapiens, non-malignant MRC5 lung fibroblasts, 48 h exposure, CCK-8
Protocol: as §1, §2, §3

| Structure (SMILES) | IC50 ([1]; Homo sapiens) | IC50 [2] | IC50 ([1]; Homo sapiens, A549, 48 h) | IC50 [3] | melting point | IC50 [1] | toxicity toward MRC5 non-malignant cells (in words) [3] | cytotoxicity against SKOV3 cell line (in words) [2] | cytotoxicity against A549 cell line (in words) [1] |
| --- | --- | --- | --- | --- | --- | --- | --- | --- | --- |
| COc1cccc2c1C(=O)c1c(O)c3c(c(O)c1C2=O)C[C@@](O)(C(=O)CO)C[C@@H]3O[C@H]1C[C@H](N)[C@H](O)[C@H](C)O1 [Doxorubicin, reference compound] | < 0.1 µM |  |  |  |  |  |  |  |  |
| CCOC(=O)CC(NS(=O)(=O)c1ccc(C)cc1)(c1ccc([N+](=O)[O-])cc1)P(=O)(OC)OC (centres unmarked) [7q, Ethyl 3-(dimethoxyphosphoryl)-3-((4-methylphenyl)sulfonamido)-3-(4-nitrophenyl)propanoate] |  | > 50 µM | 0.67 ± 0.06 µM | > 50 µM | 129 to 130 °C |  |  |  |  |
| CCOC(=O)CC(NS(=O)(=O)c1ccc(C)cc1)(c1ccc(-c2ccccc2)cc1)P(=O)(OC)OC (centres unmarked) [7s, Ethyl 3-([1,1’-biphenyl]-4-yl)-3-(dimethoxyphosphoryl)-3-((4-methylphenyl)sulfonamido)propanoate] |  | 17 ± 1.22 µM | 1.48 ± 0.4 µM | > 50 µM | 112 to 113 °C |  |  |  |  |
| CCOC(=O)CC(NS(=O)(=O)c1ccc(C)cc1)(c1cccc(F)c1)P(=O)(OC)OC (centres unmarked) [7k, Ethyl 3-(dimethoxyphosphoryl)-3-(3-fluorophenyl)-3-((4-methylphenyl)sulfonamido)propanoate] |  | > 50 µM | 0.34 µM | > 50 µM | 111 to 112 °C | 0.59 ± 0.09 µM |  |  |  |
| CCOC(=O)CC(NS(=O)(=O)c1ccc(C)cc1)(c1cccc(Cl)c1)P(=O)(OC)OC (centres unmarked) [7g, Ethyl 3-(3-chlorophenyl)-3-(dimethoxyphosphoryl)-3-((4-methylphenyl)sulfonamido)propanoate] |  | > 50 µM | 2.96 ± 0.34 µM | 38.1 ± 1.61 µM | 88 to 89 °C |  | toxic against the healthy cells |  |  |
| CCOC(=O)CC(NS(=O)(=O)c1ccc(C)cc1)(c1ccc(C)cc1)P(=O)(OC)OC (centres unmarked) [7b, Ethyl 3-(dimethoxyphosphoryl)-3-((4-methylphenyl)sulfonamido)-3-(p-tolyl)propanoate] |  | > 50 µM | 0.34 ± 0.04 µM | 29.6 ± 2.98 µM | 117 to 118 °C |  | some toxicity | no activity |  |
| CCOC(=O)CC(NS(=O)(=O)c1ccc(C)cc1)(c1ccc(F)c(F)c1)P(=O)(OC)OC (centres unmarked) [7n, Ethyl 3-(3,4-difluorophenyl)-3-(dimethoxyphosphoryl)-3-((4-methylphenyl)sulfonamido)propanoate] |  | > 50 µM | 5.7 ± 0.7 µM | > 50 µM | 98 to 99 °C |  |  |  |  |
| CCOC(=O)CC(NS(=O)(=O)c1ccc(C)cc1)(c1ccccc1)P(=O)(OC)OC (centres unmarked) [7a, Ethyl 3-(dimethoxyphosphoryl)-3-((4-methylphenyl)sulfonamido)-3-phenylpropanoate] |  | > 50 µM | 2.66 ± 0.26 µM | > 50 µM | 98 to 99 °C |  |  |  |  |
| CCOC(=O)CC(NS(=O)(=O)c1ccc(C)cc1)(c1ccc(Cl)c(Cl)c1)P(=O)(OC)OC (centres unmarked) [7h, Ethyl 3-(3,4-dichlorophenyl)-3-(dimethoxyphosphoryl)-3-((4-methylphenyl)sulfonamido)propanoate] |  | 6.94 ± 0.63 µM | 1.05 ± 0.42 µM | 11.3 ± 1.16 µM | 109 to 110 °C |  |  |  |  |
| CCOC(=O)CC(NS(=O)(=O)c1ccc(C)cc1)(c1ccc(Cl)cc1)P(=O)(OC)OC (centres unmarked) [7f, Ethyl 3-(4-chlorophenyl)-3-(dimethoxyphosphoryl)-3-((4-methylphenyl)sulfonamido)propanoate] |  | 24.1 ± 1.45 µM | 3.09 ± 0.14 µM | > 50 µM | 133 to 134 °C |  |  |  |  |
| CCOC(=O)CC(NS(=O)(=O)c1ccc(C)cc1)(c1ccc(OC)c(Cl)c1)P(=O)(OC)OC (centres unmarked) [7i, Ethyl 3-(3-chloro-4-methoxyphenyl)-3-(dimethoxyphosphoryl)-3-((4-methylphenyl)sulfonamido)propanoate] |  | > 50 µM | 1.44 ± 0.15 µM | > 50 µM | 153 to 154 °C |  |  |  |  |
| COP(=O)(OC)C(CC(=O)OCc1ccccc1)(NS(=O)(=O)c1ccc(C)cc1)c1cccc(F)c1 (centres unmarked) [13a, Benzyl 3-(dimethoxyphosphoryl)-3-(3-fluorophenyl)-3-((4-methylphenyl)sulfonamido)propanoate] |  | > 50 µM | 12.8 ± 2.38 µM |  | 78 to 79 °C |  |  | no toxicity |  |
| CCOC(=O)CC(NS(=O)(=O)c1ccc(C)cc1)c1ccccc1 (centres unmarked) [compound 5, Ethyl 3-((4-methylphenyl)sulfonamido)-3-phenylpropanoate] | 18.7 ± 2.16 µM | > 50 µM |  | > 50 µM |  |  |  |  |  |
| CCOC(=O)CC(NS(=O)(=O)c1ccc(C)cc1)(c1ccc(C(F)(F)F)cc1)P(=O)(OC)OC (centres unmarked) [7p, Ethyl 3-(dimethoxyphosphoryl)-3-((4-methylphenyl)sulfonamido)-3-(4-(trifluoromethyl)phenyl)propanoate] |  | 9.8 ± 0.6 µM | 20.3 ± 1.14 µM | > 50 µM | 114 to 115 °C |  | no toxicity |  |  |
| COC(=O)CC(NS(=O)(=O)c1ccc(C)cc1)(c1cccc(F)c1)P(=O)(OC)OC (centres unmarked) [compound 12, Methyl 3-(dimethoxyphosphoryl)-3-(3-fluorophenyl)-3-((4-methylphenyl)sulfonamido)propanoate] |  | > 50 µM | 24.1 ± 4.01 µM |  | 115 to 116 °C |  |  | no toxicity |  |
| CCOC(=O)C[C@@](NS(=O)(=O)c1ccc(C)cc1)(c1cccc(F)c1)P(=O)(OC)OC [(S)-7k] |  |  | 1.56 ± 0.39 µM |  |  |  |  |  |  |
| COP(=O)(OC)C(NS(=O)(=O)c1ccc(C)cc1)c1ccccc1 (centres unmarked) [9a] |  | > 50 µM | 17.6 ± 1.3 µM | > 50 µM |  |  |  |  |  |
| CCOC(=O)CC(NS(=O)(=O)c1ccc(C)cc1)(c1cccc(C)c1)P(=O)(OC)OC (centres unmarked) [7c, Ethyl 3-(dimethoxyphosphoryl)-3-((4-methylphenyl)sulfonamido)-3-(m-tolyl)propanoate] |  | > 50 µM | 2 ± 0.52 µM | > 50 µM | 103 to 104 °C |  |  | no activity |  |
| COP(=O)(OC)C(CC(=O)O)(NS(=O)(=O)c1ccc(C)cc1)c1ccccc1 (centres unmarked) [compound 14, 3-(Dimethoxyphosphoryl)-3-((4-methylphenyl)sulfonamido)-3-phenylpropanoic acid] |  | > 50 µM | 20.6 ± 1.05 µM | > 50 µM |  |  |  |  |  |
| CCOC(=O)C[C@](NS(=O)(=O)c1ccc(C)cc1)(c1cccc(F)c1)P(=O)(OC)OC [(R)-7k] |  |  | 1.61 ± 0.2 µM |  |  |  |  |  |  |
| CCOC(=O)CC(NS(=O)(=O)c1ccc(C)cc1)(c1c(F)c(F)c(F)c(F)c1F)P(=O)(OC)OC (centres unmarked) [7o, Ethyl 3-(dimethoxyphosphoryl)-3-((4-methylphenyl)sulfonamido)-3-(perfluorophenyl)propanoate] |  | 20.5 ± 2.75 µM | 3.65 ± 0.21 µM | > 50 µM |  |  |  |  |  |
| CCOC(=O)CC(NS(=O)(=O)c1ccc(C)cc1)(C(=O)OCC)c1ccccc1 (centres unmarked) [compound 6, Diethyl 2-((4-methylphenyl)sulfonamido)-2-phenylsuccinate] | 14.2 ± 0.41 µM | > 50 µM |  | > 50 µM |  |  |  |  |  |
| COP(=O)(OC)C(C)(NS(=O)(=O)c1ccc(C)cc1)c1ccccc1 (centres unmarked) [compound 18, Dimethyl (1-((4-methylphenyl)sulfonamido)-1-phenylethyl)phosphonate] |  | > 50 µM | > 50 µM |  |  |  |  |  | no cytotoxicity |

From PMC9693455, “Synthesis of Tetrasubstituted Phosphorus Analogs of Aspartic Acid as Antiproliferative Agents” (Molecules, 2022)
